Measurements from the supplement of paper PMC10627819.

Tested on: S. aureus Newman
Assay: fitness (endpoint OD595 vs no drug) (fraction); higher = more growth
Summary of the method: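 With the first reading as background, OD595 was measured every 30 min for 14 h in 384-well plates kept at 37 °C and inoculated at OD595 0.01. TSB, LB Lennox or CY was the medium. Fitness is the optical density at the transition into stationary phase divided by the robust mean of no-drug control wells, with a cap of 1.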
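Note: OD595 on entry to stationary phase over no-drug wells; at most 1.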

CC1(C)S[C@@H]2[C@H](NC(=O)Cc3ccccc3)C(=O)N2[C@H]1C(=O)O [Penicillin G] + Cn1nnc(-c2ccc(-c3ccc(N4C[C@H](CO)OC4=O)cc3F)cn2)n1 [Tedizolid]
fitness
Details | first compound 0.0195 µg/mL | first compound 0.039 µg/mL | first compound 0.078 µg/mL
partner 0.0625 µg/mL | 0.864 | 0.861 | 0.849
partner 0.125 µg/mL | 0.803 | – | 0.719
partner 0.25 µg/mL | 0.405 | 0.339 | 0.305

CC1(C)S[C@@H]2[C@H](NC(=O)Cc3ccccc3)C(=O)N2[C@H]1C(=O)O [Penicillin G] + CCN(CC)CCOC(=O)c1ccc(N)cc1 [Procaine]
fitness
Details | first compound 0.0195 µg/mL | first compound 0.039 µg/mL | first compound 0.078 µg/mL
partner 85.5 µg/mL | 0.899 | 0.943 | 0.947
partner 171 µg/mL | 0.876 | 0.925 | 0.977
partner 342 µg/mL | 0.876 | 0.914 | 0.952

CC1(C)S[C@@H]2[C@H](NC(=O)Cc3ccccc3)C(=O)N2[C@H]1C(=O)O [Penicillin G] + CN[C@@H]1[C@H](O)[C@H](NC)[C@H]2O[C@@]3(O)C(=O)C[C@@H](C)O[C@H]3O[C@@H]2[C@H]1O [Spectinomycin]
fitness
Details | first compound 0.0195 µg/mL | first compound 0.039 µg/mL | first compound 0.078 µg/mL
partner 4 µg/mL | 0.857 | 0.848 | 0.817
partner 8 µg/mL | 0.852 | 0.857 | 0.828
partner 16 µg/mL | 0.844 | 0.806 | 0.802

fitness, one replicate
Details | first compound 0.0195 µg/mL | first compound 0.039 µg/mL | first compound 0.078 µg/mL
partner 32 µg/mL | 0.462 | 0.35 | 0.272
partner 64 µg/mL | 0.0086 | 0.0192 | 0.0551

CO/N=C(\C(=O)N[C@@H]1C(=O)N2C(C(=O)O)=C(COC(N)=O)CS[C@H]12)c1ccco1 [Cefuroxime] + CO[C@@]12[C@H](COC(N)=O)C3=C(C(=O)C(C)=C(N)C3=O)N1C[C@@H]1N[C@@H]12 [Mitomycin C]
fitness, one replicate
Details | first compound 0.04875 µg/mL | first compound 0.0975 µg/mL | first compound 0.195 µg/mL
partner 0.0156 µg/mL | 0.6 | 0.597 | 0.653
partner 0.0312 µg/mL | 0.35 | 0.338 | 0.332
partner 0.0625 µg/mL | 0.537 | 0.488 | 0.413

CO/N=C(\C(=O)N[C@@H]1C(=O)N2C(C(=O)O)=C(COC(C)=O)CS[C@H]12)c1csc(N)n1 [Cefotaxime] + CC1(C)S[C@@H]2[C@H](NC(=O)Cc3ccccc3)C(=O)N2[C@H]1C(=O)O [Penicillin G]
fitness
Details | first compound 0.078 µg/mL | first compound 0.156 µg/mL | first compound 0.312 µg/mL
partner 0.0195 µg/mL | 0.677 | 0.506 | 0.297
partner 0.039 µg/mL | 0.644 | 0.49 | 0.288
partner 0.078 µg/mL | 0.693 | 0.541 | 0.301

fitness, one replicate
Details | first compound 0.625 µg/mL | first compound 1.25 µg/mL | first compound 2.5 µg/mL
partner 0.0195 µg/mL | 0.0231 | 0.0448 | 0.071
partner 0.039 µg/mL | 0.0366 | 0.0335 | 0.0438
partner 0.078 µg/mL | 0.0525 | 0.0319 | 0.0774

CC1(C)S[C@@H]2[C@H](NC(=O)Cc3ccccc3)C(=O)N2[C@H]1C(=O)O [Penicillin G] + COc1ccc(C[C@H](N)C(=O)N[C@H]2[C@@H](O)[C@H](n3cnc4c(N(C)C)ncnc43)O[C@@H]2CO)cc1 [Puromycin]
fitness
Details | first compound 0.0195 µg/mL | first compound 0.039 µg/mL | first compound 0.078 µg/mL
partner 0.39 µg/mL | 0.879 | 0.933 | 0.909
partner 0.78 µg/mL | 0.914 | 0.935 | 0.868
partner 1.56 µg/mL | 0.929 | 0.941 | 0.961
